Experiments:
[1] = system: Papillomaviruses; settings: cited from earlier work
[2] = system: Zinc-fingers in which the Zinc is tetrahedrally coordinated to cysteines and histidines; settings: cysteine/histidine-coordinated Zinc; cited from earlier work
[3] = system: type II collagen-induced arthritis; settings: mice; cited from earlier work
[4] = in vivo
Text: • 1. It was recently discovered that the transcription factor Zinc-finger protein Gli-similar (Glisl) is found only in psoriatic and not in the epidermis of healthy skin^2. The expression of this protein is restricted to the suprabasal level of the psoriatic epidermis. […] The mode of action of the drug involves displacement Zinc from the protein by the axial ligation of the drug's cobalt (III) complex to the nitrogen of the imidazole ring of the histidine residues. The zinc-finger bearing protein is thus inactivated^4. • We have discovered that Doxovir (CTC-96) will inactivate Glis1 in Psoriatic epidermis and as a result may selectively retard the abnormal proliferation and differentiation of psoriatic keratinocytes. • 2. There have been several reports of the possibility that Human Papilloma Viruses (HPVs) are associated with at least certain manifestations of psoriasis (e.g. ^5,6,7,8). Papillomaviruses proliferate and affect the differentiation and proliferation of keratinocytes. The possible role of the virus (particularly HPV type 5) in the etiology or the maintenance of the abnormal differentiation of psoriatic human skin keratinocytes has thus been postulated. • JunB protein, a component of the ubiquitous transcription factor AP-1, regulates cell proliferation, differentiation, stress responses and cytokine expression in various tissues. […]

Structure (SMILES): CC(/C=C(/C)[O-])=NCCN=C(C)/C=C(/C)[O-].Cc1ncc[nH]1.Cc1ncc[nH]1.[Br-].[Co+3] [Doxovir]
- anti-papillomavirus activity [1]: distinct anti-papillomavirus activity
- disruption of structure and function of Zinc-fingers [2]: selectively disrupts the structure and function of Zinc-fingers
- therapeutic activity for type II collagen-induced arthritis [3]: proven to have therapeutic activity
- adverse effects on intact skin [4]: no adverse effects on intact skin

Source: patent US20100069487A1, “METHOD FOR THE TREATMENT OF PSORIASIS” (REDOX PHARMACEUTICAL CORPORATION, priority 2006, published 2010)
